Each block holds one compound with its values, some of them ahead of it.
Tests used:
human Nav1.7 = human Nav1.7 (Homo sapiens (Human), UniProt Q15858); assay: Human Nav1.7 inhibitory activity evaluation (automated patch clamp QPatch16X, HEK293A cells stably expressing human Nav1.7 and human Navβ1); assay type: cell-based
Summary of the method: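 IC50 calculated from the concentration-response of inward current evoked by the second −10 mV, 50 ms depolarisation, which follows a 15 s conditioning step at roughly 30-40% inactivation and a 100 ms −120 mV interval. Cells: HEK293A expressing human Nav1.7/Navβ1, automated patch clamp, room temperature, 0.1% DMSO final.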

human Nav1.5 = human Nav1.5 (Homo sapiens (Human), UniProt Q14524); assay: Human Nav1.5 inhibitory activity evaluation (automated patch clamp QPatch16X, HEK293 cells stably expressing human Nav1.5); assay type: cell-based
Description: Test Example 2: Human Nav1.5 Inhibitory Activity Evaluation
A cell line in which human Nav1.5 was stably expressed in HEK293 cells was used. DMEM supplemeted with 15% fetal bovine serum, 500 μg/ml geneticin, 100 units/ml penicillin, 100 μg/ml streptomycin, 20 mM HEPES was used as culture medium under the conditions of 37° C. and 5% CO2 in T175 flasks to carry out culturing. When 60-80% confluence was reached, a cell suspension of about 0.5-5.0×10^6 cells/mL was prepared. The amount of current through human Nav1.5 was recorded using a fully automatic patch clamp device QPatch16X at room temperature. As the extracellular solution, 145 mM NaCl, 4 mM KCl, 1 mM MgCl2, 2 mM CaCl2, 10 mM Glucose, and 10 mM HEPES at pH 7.4 was used. As the intracellular solution, 135 mM CsF, ⅕ mM EGTA/CsOH, 10 mM HEPES, and 10 mM NaCl at pH 7.3 was used. The test compounds were dissolved in DMSO and diluted with the extracellular solution to attend the DMSO concentration of 0.1% at the time of assay.
The current response was obtained at a sampling frequency of 25 kHz, and noise was removed with a 3 kHz low-pass filter. The holding potential was −80 mV. Correction of the leakage current was carried out by applying a step pulse of −100 mV before the test pulse. In order to investigate human Nav1.5 inhibitory effect of the test compound, test pulses imitating the action potential of cardiomyocytes were continuously given 20 times. The test pulses were given before and after the test compound addition.
The inhibitory activity of the test compound was determined based on the amount of inward current generated by the 20th depolarization pulse, and the 50% inhibitory concentration (IC50) was calculated from the concentration-response curve.

[1] = HEK293A cells stably expressing human Nav1.7 and human Navβ1, automated patch clamp QPatch16X
[2] = HEK293 cells stably expressing human Nav1.5, automated patch clamp QPatch16X
[3] = human Nav1.7, automated patch clamp
[4] = human Nav1.5, automated patch clamp

human Nav1.5, sequence (Q14524 whole entry): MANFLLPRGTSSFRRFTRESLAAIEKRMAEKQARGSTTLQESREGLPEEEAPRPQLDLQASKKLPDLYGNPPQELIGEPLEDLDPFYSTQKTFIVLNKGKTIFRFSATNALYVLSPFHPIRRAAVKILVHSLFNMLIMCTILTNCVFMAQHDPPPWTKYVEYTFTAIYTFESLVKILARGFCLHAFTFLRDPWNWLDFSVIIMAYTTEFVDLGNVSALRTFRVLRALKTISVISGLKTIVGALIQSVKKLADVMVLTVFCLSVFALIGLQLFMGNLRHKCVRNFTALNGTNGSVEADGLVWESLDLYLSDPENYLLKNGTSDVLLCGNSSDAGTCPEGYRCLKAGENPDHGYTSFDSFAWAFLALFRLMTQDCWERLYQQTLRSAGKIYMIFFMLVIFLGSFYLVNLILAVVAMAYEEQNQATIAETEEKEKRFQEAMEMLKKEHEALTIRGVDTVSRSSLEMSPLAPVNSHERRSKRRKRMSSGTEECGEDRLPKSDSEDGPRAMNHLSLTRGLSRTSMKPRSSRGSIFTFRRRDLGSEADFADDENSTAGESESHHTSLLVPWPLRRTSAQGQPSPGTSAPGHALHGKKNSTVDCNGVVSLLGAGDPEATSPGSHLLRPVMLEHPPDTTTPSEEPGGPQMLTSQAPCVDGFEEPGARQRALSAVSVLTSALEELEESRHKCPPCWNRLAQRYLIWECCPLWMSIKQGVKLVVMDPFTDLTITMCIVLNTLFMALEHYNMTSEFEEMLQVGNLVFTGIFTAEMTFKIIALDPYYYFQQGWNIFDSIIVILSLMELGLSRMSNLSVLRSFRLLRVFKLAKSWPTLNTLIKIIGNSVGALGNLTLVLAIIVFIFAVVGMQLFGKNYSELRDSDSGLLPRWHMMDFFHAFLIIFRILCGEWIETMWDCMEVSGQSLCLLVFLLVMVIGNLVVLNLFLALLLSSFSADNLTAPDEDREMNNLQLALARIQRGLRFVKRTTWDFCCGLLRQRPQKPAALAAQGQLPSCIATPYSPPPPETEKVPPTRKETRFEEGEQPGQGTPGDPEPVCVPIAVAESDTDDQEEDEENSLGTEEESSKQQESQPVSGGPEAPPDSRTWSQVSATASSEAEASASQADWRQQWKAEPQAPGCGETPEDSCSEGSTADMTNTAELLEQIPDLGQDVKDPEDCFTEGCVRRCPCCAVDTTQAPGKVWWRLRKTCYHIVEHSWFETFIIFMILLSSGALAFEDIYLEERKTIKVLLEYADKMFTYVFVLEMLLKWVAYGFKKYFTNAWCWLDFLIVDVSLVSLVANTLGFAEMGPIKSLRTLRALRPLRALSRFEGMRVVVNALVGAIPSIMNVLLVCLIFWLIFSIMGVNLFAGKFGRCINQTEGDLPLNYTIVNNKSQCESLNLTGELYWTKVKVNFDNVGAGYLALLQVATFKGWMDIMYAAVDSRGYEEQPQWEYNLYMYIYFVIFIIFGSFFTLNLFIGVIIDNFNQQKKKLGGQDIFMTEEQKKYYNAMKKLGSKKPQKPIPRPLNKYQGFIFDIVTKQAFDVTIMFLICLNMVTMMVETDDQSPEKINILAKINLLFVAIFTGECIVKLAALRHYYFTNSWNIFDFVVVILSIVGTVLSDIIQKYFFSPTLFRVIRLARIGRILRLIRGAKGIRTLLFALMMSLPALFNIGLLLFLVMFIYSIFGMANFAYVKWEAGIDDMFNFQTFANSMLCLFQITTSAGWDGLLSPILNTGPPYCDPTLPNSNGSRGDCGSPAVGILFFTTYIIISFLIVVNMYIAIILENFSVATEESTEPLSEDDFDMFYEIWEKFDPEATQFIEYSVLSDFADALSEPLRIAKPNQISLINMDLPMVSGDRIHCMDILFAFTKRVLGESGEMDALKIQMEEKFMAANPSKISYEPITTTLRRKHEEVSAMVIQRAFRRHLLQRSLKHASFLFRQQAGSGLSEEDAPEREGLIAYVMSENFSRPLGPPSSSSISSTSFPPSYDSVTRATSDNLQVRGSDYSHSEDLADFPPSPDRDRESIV
human Nav1.7, sequence (Q15858 whole entry): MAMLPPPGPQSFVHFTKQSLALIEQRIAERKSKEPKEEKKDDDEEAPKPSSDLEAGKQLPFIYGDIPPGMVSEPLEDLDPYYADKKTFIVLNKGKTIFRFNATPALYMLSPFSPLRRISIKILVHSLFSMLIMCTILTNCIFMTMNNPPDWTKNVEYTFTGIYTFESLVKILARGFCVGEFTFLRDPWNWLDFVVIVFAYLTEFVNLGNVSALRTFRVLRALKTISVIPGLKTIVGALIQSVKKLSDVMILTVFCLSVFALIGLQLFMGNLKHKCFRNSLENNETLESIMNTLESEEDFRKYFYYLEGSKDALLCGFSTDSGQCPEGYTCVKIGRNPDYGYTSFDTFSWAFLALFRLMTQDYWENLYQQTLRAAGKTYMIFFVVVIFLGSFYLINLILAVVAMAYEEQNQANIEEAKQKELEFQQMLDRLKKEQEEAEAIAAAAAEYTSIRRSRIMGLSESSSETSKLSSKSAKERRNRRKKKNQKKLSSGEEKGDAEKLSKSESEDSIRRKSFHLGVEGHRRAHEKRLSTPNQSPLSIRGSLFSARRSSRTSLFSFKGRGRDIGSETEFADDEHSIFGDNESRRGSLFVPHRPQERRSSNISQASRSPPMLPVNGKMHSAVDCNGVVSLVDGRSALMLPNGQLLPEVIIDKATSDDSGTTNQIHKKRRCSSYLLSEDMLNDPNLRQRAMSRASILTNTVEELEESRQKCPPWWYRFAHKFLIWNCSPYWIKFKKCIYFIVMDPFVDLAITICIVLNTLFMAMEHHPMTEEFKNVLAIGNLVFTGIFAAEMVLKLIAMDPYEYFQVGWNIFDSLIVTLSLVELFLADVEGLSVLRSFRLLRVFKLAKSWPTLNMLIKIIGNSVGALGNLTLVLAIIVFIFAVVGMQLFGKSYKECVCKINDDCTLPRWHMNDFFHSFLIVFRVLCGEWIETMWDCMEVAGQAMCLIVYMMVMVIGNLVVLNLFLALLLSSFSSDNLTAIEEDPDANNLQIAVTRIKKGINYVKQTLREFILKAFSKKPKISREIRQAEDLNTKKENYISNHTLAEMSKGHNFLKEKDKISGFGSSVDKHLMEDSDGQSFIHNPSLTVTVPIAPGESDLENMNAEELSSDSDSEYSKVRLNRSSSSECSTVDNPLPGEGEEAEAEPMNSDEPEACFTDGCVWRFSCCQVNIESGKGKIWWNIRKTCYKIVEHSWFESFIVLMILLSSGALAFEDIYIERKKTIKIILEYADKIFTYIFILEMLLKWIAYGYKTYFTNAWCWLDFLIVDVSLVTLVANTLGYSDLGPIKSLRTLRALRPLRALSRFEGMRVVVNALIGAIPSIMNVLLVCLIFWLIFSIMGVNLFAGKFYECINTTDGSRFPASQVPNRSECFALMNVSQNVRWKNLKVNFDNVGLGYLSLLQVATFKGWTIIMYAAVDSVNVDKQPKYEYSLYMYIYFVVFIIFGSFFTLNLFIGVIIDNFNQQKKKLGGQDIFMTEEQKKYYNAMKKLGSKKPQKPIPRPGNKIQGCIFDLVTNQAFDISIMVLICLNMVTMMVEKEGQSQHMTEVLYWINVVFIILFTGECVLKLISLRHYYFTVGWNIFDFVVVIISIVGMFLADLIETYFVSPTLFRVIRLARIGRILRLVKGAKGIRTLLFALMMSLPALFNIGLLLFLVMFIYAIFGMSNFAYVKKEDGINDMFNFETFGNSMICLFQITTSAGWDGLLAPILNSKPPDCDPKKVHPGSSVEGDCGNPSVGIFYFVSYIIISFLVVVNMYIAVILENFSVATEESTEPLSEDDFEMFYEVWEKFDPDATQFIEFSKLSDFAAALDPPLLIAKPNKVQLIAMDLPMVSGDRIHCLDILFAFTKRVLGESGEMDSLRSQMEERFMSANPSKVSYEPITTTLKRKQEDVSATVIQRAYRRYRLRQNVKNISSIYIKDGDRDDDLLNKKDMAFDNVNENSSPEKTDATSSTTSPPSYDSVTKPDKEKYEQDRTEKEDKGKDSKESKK
human Nav1.7, sequence (Q07699 19-218 partner): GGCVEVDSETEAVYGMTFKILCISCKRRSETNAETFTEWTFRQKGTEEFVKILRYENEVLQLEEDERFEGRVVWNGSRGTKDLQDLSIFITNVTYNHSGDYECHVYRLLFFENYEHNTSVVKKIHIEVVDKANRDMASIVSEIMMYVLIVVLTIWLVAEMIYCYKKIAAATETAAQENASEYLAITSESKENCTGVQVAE

SMILES: N#Cc1ccc2c(c1)C[C@@H](NC(=O)c1cc3n(n1)CCC(COCC1CC1)O3)CO2 (mixture of isomers) [Example 102, N—((R)-6-cyanochroman-3-yl)-5-((cyclopropylmethoxy)methyl)-6,7-dihydro-5H-pyrazolo[5,1-b][1,3]oxazine-2-carboxamide]
IC50 (human Nav1.7; [1]): < 1000 nM | IC50 (human Nav1.5; [2]): ≥ 3 µM

SMILES: N#Cc1ccc2c(c1)C[C@@H](NC(=O)c1cc3n(n1)CCC(COCC(F)(F)F)O3)CO2 (mixture of isomers) [Example 114, N—((R)-6-cyanochroman-3-yl)-5-((2,2,2-trifluoroethoxy)methyl)-6,7-dihydro-5H-pyrazolo[5,1-b][1,3]oxazine-2-carboxamide]
IC50 (human Nav1.7; [1]): < 10000 nM | IC50 (human Nav1.5; [2]): ≥ 3 µM

SMILES: O=C(N[C@H]1COc2ccc(COCC(F)(F)F)cc2C1)c1cc2n(n1)CCC(COCC(F)(F)F)O2 (mixture of isomers) [Example 128, 5-((2,2,2-trifluoroethoxy)methyl)-N—((R)-6-((2,2,2-trifluoroethoxy)methyl)chroman-3-yl)-6,7-dihydro-5H-pyrazolo[5,1-b][1,3]oxazine-2-carboxamide]
IC50 (human Nav1.7; [1]): < 1000 nM | IC50 (human Nav1.5; [2]): 1 to 3 µM

SMILES: N#Cc1ccc2c(c1)C[C@@H](NC(=O)c1cc3n(n1)CCC(COC(F)(F)F)O3)CO2 (mixture of isomers) [Example 133, N—((R)-6-cyanochroman-3-yl)-5-((trifluoromethoxy)methyl)-6,7-dihydro-5H-pyrazolo[5,1-b][1,3]oxazine-2-carboxamide]
IC50 (human Nav1.7; [1]): < 1000 nM | IC50 (human Nav1.5; [2]): 1 to 3 µM

SMILES: O=C(N[C@H]1COc2ccc(C(F)(F)F)cc2C1)c1cc2n(n1)CCC(C(F)F)O2 (mixture of isomers) [Example 160, 5-(difluoromethyl)-N—((R)-6-(trifluoromethyl)chroman-3-yl)-6,7-dihydro-5H-pyrazolo[5,1-b][1,3]oxazine-2-carboxamide]
IC50 (human Nav1.7; [3]): < 1000 nM | IC50 (human Nav1.5; [4]): ≥ 3 µM

SMILES: COc1ncc(-c2ccc3c(c2)C[C@@H](NC(=O)c2cc4n(n2)CC(CCOCC2CC2)O4)CO3)cn1 (mixture of isomers) [Example 203, 2-(2-(cyclopropylmethoxy)ethyl)-N—((R)-6-(2-methoxypyrimidin-5-yl)chroman-3-yl)-2,3-dihydropyrazolo[5,1-b]oxazole-6-carboxamide]
IC50 (human Nav1.7; [3]): < 1000 nM | IC50 (human Nav1.5; [4]): ≥ 3 µM

SMILES: N#Cc1ccc2c(c1)C[C@@H](NC(=O)c1cc3n(n1)CCC(COCC1(F)CC1)O3)CO2 (mixture of isomers) [Example 532]
IC50 (human Nav1.7; [3]): < 10000 nM | IC50 (human Nav1.5; [4]): ≥ 3 µM

SMILES: O=C(N[C@H]1COc2ccc(C(F)F)cc2C1)c1cn2c(n1)CCC(C(F)(F)F)C2 (single isomer, unassigned) [7 (isomer A)]
IC50 (human Nav1.7; [1]): < 1000 nM | IC50 (human Nav1.5; [2]): 1 to 3 µM

SMILES: O=C(N[C@H]1COc2ccc(C(F)F)cc2C1)c1cn2c(n1)CCC(C(F)(F)F)C2 (single isomer, unassigned) [7 (isomer B)]
IC50 (human Nav1.7; [1]): < 1000 nM | IC50 (human Nav1.5; [2]): ≥ 3 µM

SMILES: O=C(NC1COc2cccc(Br)c2C1)c1cn2c(n1)CCC(C(F)(F)F)C2 (single isomer, unassigned) [9 (isomer A)]
IC50 (human Nav1.7; [1]): < 10000 nM | IC50 (human Nav1.5; [2]): ≥ 3 µM

SMILES: O=C(NC1COc2cccc(Br)c2C1)c1cn2c(n1)CCC(C(F)(F)F)C2 (single isomer, unassigned) [9 (isomer B)]
IC50 (human Nav1.7; [1]): < 1000 nM | IC50 (human Nav1.5; [2]): ≥ 3 µM

SMILES: CCCC1CCn2nc(C(=O)N[C@H]3COc4ccc(C#N)cc4C3)cc2O1 (single isomer, unassigned) [95 (isomer B)]
IC50 (human Nav1.5; [2]): ≥ 3 µM

SMILES: N#Cc1ccc2c(c1)C[C@@H](NC(=O)c1cc3n(n1)CCC(CC1CC1)O3)CO2 (single isomer, unassigned) [97 (isomer B)]
IC50 (human Nav1.5; [2]): ≥ 3 µM

SMILES: O=C(N[C@H]1COc2ccc(-c3ccccn3)cc2C1)c1cc2n(n1)CCC(COCC1CC1)O2 (single isomer, unassigned) [111 (isomer B)]
IC50 (human Nav1.5; [2]): 1 to 3 µM

SMILES: O=C(N[C@H]1COc2ccc(CC(F)F)cc2C1)c1cc2n(n1)CCC(COCC(F)(F)F)O2 (single isomer, unassigned) [127 (isomer B)]
IC50 (human Nav1.5; [2]): ≥ 3 µM

SMILES: O=C(N[C@H]1COc2ccc(CC(F)F)cc2C1)c1cc2n(n1)CCC(CCOC(F)F)O2 (single isomer, unassigned) [148 (isomer B)]
IC50 (human Nav1.5; [4]): ≥ 3 µM

SMILES: O=C(N[C@H]1COc2ccc(COCC(F)(F)F)cc2C1)c1cc2n(n1)CCC(CCOC(F)F)O2 (single isomer, unassigned) [150 (isomer B)]
IC50 (human Nav1.5; [4]): 1 to 3 µM

SMILES: O=C(N[C@H]1COc2ccc(Cl)cc2C1)c1cc2n(n1)CCC(CNCC(F)(F)F)O2 (single isomer, unassigned) [152 (isomer B)]
IC50 (human Nav1.5; [4]): ≥ 3 µM

SMILES: Cn1ccc(-c2ccc3c(c2)C[C@@H](NC(=O)c2cc4n(n2)CC(CCOCC(F)(F)F)O4)CO3)n1 (single isomer, unassigned) [206 (isomer B)]
IC50 (human Nav1.5; [4]): ≥ 3 µM

SMILES: O=C(N[C@H]1COc2ccc(CC(F)F)cc2C1)c1cc2n(n1)CC(CCOC(F)(F)F)O2 (single isomer, unassigned) [211 (isomer B)]
IC50 (human Nav1.5; [4]): < 1 µM

SMILES: N#Cc1ccc2c(c1)C[C@@H](NC(=O)c1cc3n(n1)CC(CCCOC(F)(F)F)O3)CO2 (single isomer, unassigned) [247 (isomer B)]
IC50 (human Nav1.5; [4]): 1 to 3 µM

SMILES: O=C(N[C@H]1COc2ccc(C(F)(F)F)cc2C1)c1cc2n(n1)CCC(OCC(F)(F)F)CO2 (single isomer, unassigned) [257 (isomer B)]
IC50 (human Nav1.5; [4]): ≥ 3 µM

SMILES: O=C(N[C@H]1COc2ccc(COCC(F)(F)F)cc2C1)c1cc2n(n1)CC(CC1CCOCC1)O2 (single isomer, unassigned) [622 (isomer B)]
IC50 (human Nav1.5; [4]): ≥ 3 µM

SMILES: O=C(N[C@H]1COc2ccc(Br)cc2C1)c1cc2n(n1)CC(C(F)(F)F)O2 (some centres unmarked) [Example 445]
IC50 (human Nav1.5; [4]): ≥ 3 µM

Other lines, results leading:

IC50 (human Nav1.7; [3]): < 10000 nM
SMILES: O=C(N[C@H]1COc2ccc(C(F)(F)F)cc2C1O)c1cc2n(n1)CC(COCCOCC(F)(F)F)O2 (some centres unmarked) [Example 660]

IC50 (human Nav1.7; [3]): < 1000 nM
SMILES: O=C(N[C@H]1COc2ccc(COCC(F)(F)F)cc2C1)c1cc2n(n1)CC(COCCOCC(F)(F)F)O2 (some centres unmarked) [Example 661]

IC50 (human Nav1.7; [3]): < 1000 nM
SMILES: O=C(N[C@H]1COc2ccc(Cl)cc2C1)c1cc2n(n1)CCC(COCCOCC(F)(F)F)O2 (some centres unmarked) [Example 662]

IC50 (human Nav1.7; [3]): < 1000 nM
SMILES: O=C(N[C@H]1COc2ccc(C(F)(F)F)cc2C1)c1cc2n(n1)CCC(COCCOCC(F)(F)F)O2 (some centres unmarked) [Example 663]

IC50 (human Nav1.7; [3]): < 10000 nM
SMILES: N#Cc1ccc2c(c1)C[C@@H](NC(=O)c1cc3n(n1)CCC(COCCOCC(F)(F)F)O3)CO2 (some centres unmarked) [Example 664]

IC50 (human Nav1.7; [3]): < 1000 nM
SMILES: O=C(N[C@H]1COc2ccc(C(F)(F)F)cc2C1F)c1cc2n(n1)CCC(COCCOCC(F)(F)F)O2 (some centres unmarked) [Example 665]

IC50 (human Nav1.7; [3]): < 10000 nM
SMILES: O=C(N[C@H]1COc2ccc(C(F)(F)F)cc2C1)c1cc2n(n1)CCN(CCOCC(F)F)C2 [Example 666]

IC50 (human Nav1.7; [3]): < 1000 nM
SMILES: O=C(N[C@H]1COc2ccc(COCC(F)(F)F)cc2C1)c1cc2n(n1)CCN(CCOCC(F)(F)F)C2 [Example 667]

IC50 (human Nav1.7; [3]): < 10000 nM
SMILES: O=C(N[C@H]1COc2ccc(CC(F)F)cc2C1)c1cc2n(n1)CCC(C1CCCO1)O2 (some centres unmarked) [Example 668]

IC50 (human Nav1.7; [3]): < 10000 nM
SMILES: O=C(N[C@H]1COc2ccc(C(F)(F)F)cc2C1)c1cc2n(n1)CCN(CC1CCOC1)C2 (some centres unmarked) [Example 669]

IC50 (human Nav1.7; [3]): < 1000 nM
SMILES: O=C(N[C@H]1COc2ccc(C(F)(F)F)cc2C1F)c1cc2n(n1)CCN(C1CCOC1)C2 (some centres unmarked) [Example 670]

IC50 (human Nav1.7; [3]): < 1000 nM
SMILES: CC(C)OCCN1CCn2nc(C(=O)N[C@H]3COc4ccc(C(F)(F)F)cc4C3F)cc2C1 (some centres unmarked) [Example 671]

IC50 (human Nav1.7; [3]): < 1000 nM
SMILES: O=C(N[C@H]1COc2ccc(C(F)(F)F)cc2C1F)c1cc2n(n1)CCN(CC1CCCOC1)C2 (some centres unmarked) [Example 672]

IC50 (human Nav1.7; [3]): < 1000 nM
SMILES: O=C(N[C@H]1COc2ccc(C(F)(F)F)cc2C1F)c1cc2n(n1)CCN(CC1CCOC1)C2 (some centres unmarked) [Example 673]

IC50 (human Nav1.7; [3]): < 10000 nM
SMILES: O=C(N[C@H]1COc2ccc(CC(F)F)cc2C1)c1cc2n(n1)CCC(CC1CCOCC1)O2 (some centres unmarked) [Example 674]

IC50 (human Nav1.7; [3]): < 1000 nM
SMILES: O=C(N[C@H]1COc2ccc(C(F)(F)F)cc2C1F)c1cc2n(n1)CC(COCCOCC(F)(F)F)O2 (some centres unmarked) [Example 676]

IC50 (human Nav1.7; [3]): < 10000 nM
SMILES: O=C(N[C@H]1COc2ccc(C(F)(F)F)cc2C1O)c1cc2n(n1)CCN(CCOCC(F)(F)F)C2 (some centres unmarked) [Example 677]

IC50 (human Nav1.7; [3]): < 1000 nM
SMILES: O=C(N[C@H]1COc2ccc(C(F)(F)F)cc2C1F)c1cc2n(n1)CCN(CCOCC(F)F)C2 (some centres unmarked) [Example 678]

IC50 (human Nav1.7; [3]): < 1000 nM
SMILES: O=C(N[C@H]1COc2ccc(C(F)(F)F)cc2C1F)c1cc2n(n1)CCC(OCC(F)(F)F)CO2 (some centres unmarked) [Example 679]

IC50 (human Nav1.7; [3]): < 10000 nM
SMILES: O=C(N[C@H]1COc2ccc(C(F)(F)F)cc2C1)c1cc2n(n1)CCC(OCCOCC(F)(F)F)CO2 (some centres unmarked) [Example 680]

IC50 (human Nav1.7; [3]): < 10000 nM
SMILES: O=C(N[C@H]1COc2ccc(Cl)cc2C1)c1cc2n(n1)CCC(OCCOCC(F)(F)F)CO2 (some centres unmarked) [Example 682]

From patent US12421225B2, “Heteroaromatic amide derivative and medicament containing the same” (KAKEN PHARMACEUTICAL CO., LTD., priority 2018, dated 2025)
